Laboratory results: patent US7304093B2, “Ketone compounds and compositions for cholesterol management and related uses” (Esperion Therapeutics, Inc., priority 2000, dated 2007)
Where two headings read alike, the source gives them in different places. Marks after values point to notes of the source that are not given here.

Tested on: female obese Zucker rats
Assay: Serum lipid and glycemic control variables in chow-fed obese female Zucker rats, daily oral gavage for two weeks
Format: in vivo, rat
Settings: for change in vivo at 100 mg/kg: Rattus norvegicus, Table 9; for Glucose / HDL-C / NEFA / Non-HDL-C / TG / Insulin: serum, mean ± SEM; for Insulin: Tables 10, 11
Method in brief: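 Female obese Zucker fa rats, 10–12 wk, 400–500 g, chow-fed, dosed daily by oral gavage for 14 days in CMC/Tween 20 or ethanol/PEG-200 vehicle. After a 6-h fast, serum was sampled pre-dose, day 7 and day 14. Triglycerides, total cholesterol, NEFA and β-hydroxybutyrate were measured, plus lipoprotein cholesterol by gel-filtration profiling.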

## CC(C)(CO)CCCCC(=O)CCCCC(C)(C)CO [Compound 214c, 1,13-Dihydroxy-2,2,12,12-tetramethyltridecan-7-one]
3 mg/kg daily oral, 1 wk
  HDL-C, percent increase (+) or decrease (−) of the pretreatment control value: (−10) percent
  Glucose: 106 ± 2 mg/dL
  HDL-C: 43 ± 4^a mg/dl
  NEFA: 1.2 ± 0.05 mg/dL
  Non-HDL-C: 25 ± 3 mg/dL
  TG: 800 ± 75 mg/dL
  Insulin: 7.5 ± 0.8 ng/mL
3 mg/kg daily oral, 2 wk
  HDL-C, percent increase (+) or decrease (−) of the pretreatment control value: (−19) percent
  NEFA, percent increase (+) or decrease (−) of the pretreatment control value: (+145) percent
  Glucose: 103 ± 3 mg/dL
  HDL-C: 39 ± 4^a mg/dl
  NEFA: 1.6 ± 0.13
  Non-HDL-C: 22 ± 2 mg/dL
  TG: 781 ± 65 mg/dL
  Insulin: 7.8 ± 0.6 ng/mL
10 mg/kg daily oral, 1 wk
  HDL-C, percent increase (+) or decrease (−) of the pretreatment control value: (+113) percent
  NEFA, percent increase (+) or decrease (−) of the pretreatment control value: (−18) percent
  TG, percent increase (+) or decrease (−) of the pretreatment control value: (−23) percent
  Glucose: 110 ± 2 mg/dL
  HDL-C: 52 ± 3^a mg/dl
  NEFA: 0.98 ± 0.08
  Non-HDL-C: 21 ± 2 mg/dL
  TG: 602 ± 37^a mg/dl
  Insulin: 7.5 ± 0.4 ng/mL
10 mg/kg daily oral, 2 wk
  HDL-C, percent increase (+) or decrease (−) of the pretreatment control value: (+115) percent
  Glucose: 110 ± 3 mg/dL
  HDL-C: 53 ± 4^a mg/dl
  NEFA: 1.0 ± 0.10 mg/dL
  Non-HDL-C: 25 ± 2 mg/dL
  TG: 730 ± 52 mg/dL
  Insulin: 7.8 ± 0.5 ng/mL
30 mg/kg daily oral, 1 wk
  HDL-C, percent increase (+) or decrease (−) of the pretreatment control value: (+140) percent
  NEFA, percent increase (+) or decrease (−) of the pretreatment control value: (−21) percent
  TG, percent increase (+) or decrease (−) of the pretreatment control value: (−27) percent
  Glucose: 112 ± 13 mg/dL
  HDL-C: 60 ± 3^a mg/dl
  NEFA: 1.1 ± 0.05
  Non-HDL-C: 28 ± 2 mg/dL
  TG: 726 ± 49^a mg/dl
  Insulin: 0.091 ± 0.006 ng/mL
30 mg/kg daily oral, 2 wk
  HDL-C, percent increase (+) or decrease (−) of the pretreatment control value: (+142) percent
  Non-HDL-C, percent increase (+) or decrease (−) of the pretreatment control value: (+127) percent
  Glucose: 120 ± 3 mg/dL
  HDL-C: 61 ± 4^a mg/dl
  NEFA: 1.2 ± 0.10 mg/dL
  Non-HDL-C: 38 ± 5^a mg/dl
  TG: 985 ± 110 mg/dL
  Insulin: 0.098 ± 0.007 ng/mL
100 mg/kg daily oral, 1 wk
  HDL-C, percent increase (+) or decrease (−) of the pretreatment control value: (+173) percent
  NEFA, percent increase (+) or decrease (−) of the pretreatment control value: (−30) percent
  TG, percent increase (+) or decrease (−) of the pretreatment control value: (−54) percent
  Glucose: 120 ± 5 mg/dL
  HDL-C: 78 ± 5^a mg/dl
  NEFA: 0.98 ± 0.04
  Non-HDL-C: 23 ± 1 mg/dL
  TG: 485 ± 29^a mg/dl
  Insulin: 0.109 ± 0.01 ng/mL
100 mg/kg daily oral, 2 wk
  HDL-C, percent increase (+) or decrease (−) of the pretreatment control value: (+176) percent
  NEFA, percent increase (+) or decrease (−) of the pretreatment control value: (−33) percent
  TG, percent increase (+) or decrease (−) of the pretreatment control value: (−33) percent
  Glucose: 118 ± 3 mg/dL
  HDL-C: 79 ± 6^a mg/dl
  NEFA: 0.94 ± 0.04
  Non-HDL-C: 32 ± 2 mg/dL
  TG: 702 ± 53^a mg/dl
  Insulin: 0.11 ± 0.009 ng/mL
168 h, 100 mg/kg daily oral, 1 wk, read-out: HDL-Cholesterol, Percent Change from Pre-Treatment
  change in vivo at 100 mg/kg: 110%
168 h, 100 mg/kg daily oral, 1 wk, read-out: NonHDL-Cholesterol, Percent Change from Pre-Treatment
  change in vivo at 100 mg/kg: -23%
168 h, 100 mg/kg daily oral, 1 wk, read-out: TG, Percent Change from Pre-Treatment
  change in vivo at 100 mg/kg: -54%
336 h, 100 mg/kg daily oral, 2 wk, read-out: HDL-Cholesterol, Percent Change from Pre-Treatment
  change in vivo at 100 mg/kg: 126%
336 h, 100 mg/kg daily oral, 2 wk, read-out: NonHDL-Cholesterol, Percent Change from Pre-Treatment
  change in vivo at 100 mg/kg: -10%
336 h, 100 mg/kg daily oral, 2 wk, read-out: TG, Percent Change from Pre-Treatment
  change in vivo at 100 mg/kg: -29%
